The text below walks through data of US12011433B2 (UNIVERSITÁ DEGLI STUDI DI BARI “ALDO MORO”, priority 2016, dated 2024).

Where two headings read alike, the source gives them in different places.

For one series, the target named is ovine COX-1 (Ovis aries (Sheep), UniProt P05979). Briefly: colorimetric COX (ovine) inhibitor screening assay kit. The series is classed as biochemical. The note with it: for inhibition at 50 µM: read-out: COX-1 [% inhibition at 50 μM], ovine COX-1, 50 μM; for IC50: ovine COX-1. On the procedure:
(§1) Enzyme inhibition was determined using a colorimetric COX (ovine) inhibitor screening assay kit (Cayman Chemicals, Ann Arbor, MI, USA) following the manufacturer's instructions. Stock solutions of test compounds were dissolved in a minimum volume of DMSO.

A further series has as its target ovine COX-2 (Ovis aries (Sheep), UniProt P79208). The series is described as above. It is filed as biochemical. The note with it: for inhibition at 50 µM: read-out: COX-2 [% inhibition at 50 μM], ovine COX-2, 50 μM; for IC50: ovine COX-2. On the procedure: as §1
The next series has as its target COX-2 (Homo sapiens, UniProt P35354). The experiment in a line: colorimetric COX Inhibitor screening Assay (peroxidase component, oxidized TMPD at 590 nm). The series is classed as biochemical. Conditions: for inhibition at 50 µM: the highest concentration tested; for IC50: human cyclooxygenase. On the procedure: Human cyclooxygenase inhibitory activity was determined by a colorimetric COX Inhibitor screening Assay which measures the peroxidase component of the cyclooxygenases, monitoring the appearance of oxidized N,N,N′,N′-tetramethyl-p-phenylenediamine (TMPD) at 590 nm.

Series [1] in a line: Caco-2 monolayer efflux assay, Apparent Permeability (Papp), with or without GLUT-1 inhibitor phloretin. It is filed as in vitro ADME, Human. The note with it: human, compound alone. On the procedure: (§2) In a monolayer efflux assay, the Apparent Permeability (Papp) in both basolateral to apical [Papp(B→A)] and apical to basolateral [Papp(A→B)] directions was determined for each compound (FIG. 2). Human colonic adenocarcinoma cell line (Caco-2) presents a facilitated transport system at the apical and basolateral surface. Caco-2 cells express high levels of GLUT-1 that are localized to the basolateral membrane and transport glucose to the serosal side.
(§3) The Papp(B→A) flux of each compound alone or in the presence of phloretin, a GLUT-1 inhibitor, has been determined. Since GLUT-1 is express in the basolateral compartment a high B→A flux means that the transport is GLUT-1 mediated because B→A flux represents the active transport.
(§4) A→B flux, which represents the passive transport, has also been determined for each compound (Table 2).

A further series deals with Caco-2 cells. The description is as above. The series is classed as in vitro ADME, Human. Conditions: for Papp B → A, Phloretin: in the presence of 100 mM Phloretin; for reduction of the basolateral to apical flux (Papp B→A) in the presence of phloretin: phloretin vs alone. On the procedure: as §2, §3, §4
The next series deals with GLUT-1. The description is as above. It is filed as in vitro ADME, Human. Conditions: human. On the procedure:
as §2, §3, §4

COX-2, sequence (P35354 18-604 limits assumed): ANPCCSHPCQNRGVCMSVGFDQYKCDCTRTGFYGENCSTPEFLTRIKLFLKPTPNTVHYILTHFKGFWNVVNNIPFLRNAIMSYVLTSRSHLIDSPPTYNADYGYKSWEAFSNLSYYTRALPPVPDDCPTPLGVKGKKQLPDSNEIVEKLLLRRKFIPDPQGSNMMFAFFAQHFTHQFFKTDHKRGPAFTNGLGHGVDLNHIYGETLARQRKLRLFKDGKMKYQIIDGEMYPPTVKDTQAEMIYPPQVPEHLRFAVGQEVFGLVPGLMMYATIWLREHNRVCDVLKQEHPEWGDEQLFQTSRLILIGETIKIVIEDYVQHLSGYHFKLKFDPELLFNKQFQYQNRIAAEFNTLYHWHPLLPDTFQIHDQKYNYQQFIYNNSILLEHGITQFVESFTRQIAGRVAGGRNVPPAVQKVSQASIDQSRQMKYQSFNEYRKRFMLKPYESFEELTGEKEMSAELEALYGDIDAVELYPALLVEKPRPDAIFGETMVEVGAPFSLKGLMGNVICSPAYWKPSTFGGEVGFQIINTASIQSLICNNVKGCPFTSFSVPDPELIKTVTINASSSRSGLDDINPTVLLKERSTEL
ovine COX-2, sequence (P79208 17-603): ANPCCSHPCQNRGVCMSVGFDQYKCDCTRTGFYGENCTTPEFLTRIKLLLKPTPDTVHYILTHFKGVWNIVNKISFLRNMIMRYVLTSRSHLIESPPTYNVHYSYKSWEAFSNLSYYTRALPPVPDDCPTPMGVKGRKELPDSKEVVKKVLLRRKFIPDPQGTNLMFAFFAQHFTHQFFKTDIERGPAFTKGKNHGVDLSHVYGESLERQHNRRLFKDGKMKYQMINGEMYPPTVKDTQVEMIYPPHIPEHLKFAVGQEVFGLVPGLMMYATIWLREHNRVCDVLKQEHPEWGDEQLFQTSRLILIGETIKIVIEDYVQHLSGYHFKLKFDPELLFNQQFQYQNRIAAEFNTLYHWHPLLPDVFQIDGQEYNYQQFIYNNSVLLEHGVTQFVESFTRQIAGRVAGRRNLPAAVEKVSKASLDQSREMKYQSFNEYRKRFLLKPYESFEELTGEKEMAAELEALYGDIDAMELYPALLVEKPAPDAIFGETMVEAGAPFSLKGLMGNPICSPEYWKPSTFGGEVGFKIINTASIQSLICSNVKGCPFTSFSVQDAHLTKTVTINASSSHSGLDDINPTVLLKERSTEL
ovine COX-1, sequence (P05979 25-600): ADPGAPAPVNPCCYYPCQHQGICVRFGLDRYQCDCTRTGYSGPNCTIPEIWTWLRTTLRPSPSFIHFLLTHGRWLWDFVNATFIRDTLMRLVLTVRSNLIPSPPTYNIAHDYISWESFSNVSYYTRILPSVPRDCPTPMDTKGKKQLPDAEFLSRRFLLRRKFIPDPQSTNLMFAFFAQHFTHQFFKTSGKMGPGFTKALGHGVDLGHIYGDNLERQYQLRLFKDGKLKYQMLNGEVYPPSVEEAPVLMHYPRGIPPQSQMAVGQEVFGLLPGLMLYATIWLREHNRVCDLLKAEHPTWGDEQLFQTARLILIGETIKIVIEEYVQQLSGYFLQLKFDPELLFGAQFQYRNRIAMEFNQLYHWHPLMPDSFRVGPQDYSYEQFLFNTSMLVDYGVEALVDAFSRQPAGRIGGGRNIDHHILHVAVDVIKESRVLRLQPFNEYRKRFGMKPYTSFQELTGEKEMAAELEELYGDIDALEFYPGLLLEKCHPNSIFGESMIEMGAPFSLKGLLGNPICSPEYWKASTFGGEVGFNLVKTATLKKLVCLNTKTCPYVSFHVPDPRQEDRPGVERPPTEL

With `COc1ccc(-c2noc(CC(=O)NCC(=O)O)c2-c2ccc(OC)cc2)cc1`, the inhibition at 50 µM was found to be 23% on ovine COX-1 and 17% on ovine COX-2.

As for `COC(=O)CNC(=O)Cc1onc(-c2ccc(OC)cc2)c1-c1ccc(OC)cc1`, the concentration for half-maximal inhibition (IC50) stood at 0.07 µM on ovine COX-1 and 4.4 µM at ovine COX-2. For the same compound, the inhibition at 50 µM at ovine COX-1 was 95%; at ovine COX-2 it was 80%.

Regarding `COc1ccc(-c2noc(CC(=O)NCCCCCCNC(=O)Cc3onc(-c4ccc(OC)cc4)c3-c3ccc(OC)cc3)c2-c2ccc(OC)cc2)cc1`, the IC50 at ovine COX-1 was 9 µM; at ovine COX-2 it was above 50 µM. Further, the inhibition at 50 µM amounted to 50% on ovine COX-1 and 22% on ovine COX-2.

On to `COc1ccc(-c2noc(CC(=O)NCc3ccc(CNC(=O)Cc4onc(-c5ccc(OC)cc5)c4-c4ccc(OC)cc4)cc3)c2-c2ccc(OC)cc2)cc1`, for which the concentration for half-maximal inhibition (IC50) on ovine COX-1 and against ovine COX-2 was above 50 µM in each case.

Consider `CCCCC/C=C\C/C=C\C/C=C\C/C=C\CCCC(=O)Nc1ccc(NC(=O)Cc2onc(-c3ccc(OC)cc3)c2-c2ccc(OC)cc2)cc1`, for which the IC50 against ovine COX-1 was 0.049 µM; on ovine COX-2, above 50 µM. Further, the inhibition at 50 µM on ovine COX-1 is 66%; at ovine COX-2, 40%.

Regarding `CCCCC/C=C\C/C=C\C/C=C\C/C=C\CCCC(=O)NCCCCNC(=O)Cc1onc(-c2ccc(OC)cc2)c1-c1ccc(OC)cc1`, the figures for the 50% inhibitory concentration (IC50) against ovine COX-1 and on ovine COX-2 were 16 µM and 0.8 µM, respectively. In addition, the inhibition at 50 µM on ovine COX-1 is 57%; on ovine COX-2, 61%.

`COc1ccc(-c2noc(CC(=O)NCCCCC(=O)OC[C@H]3OC(O)[C@H](O)[C@@H](O)[C@H]3O)c2-c2ccc(OC)cc2)cc1` (mixture of isomers) [GALMOF5, 6-O-(5-{2-[3,4-bis(4-methoxyphenyl)isoxazol-5-yl]acetamido}pentanoyl)-D-galactopyranose] yielded an inhibition at 50 µM against COX-2 of 24%. Also, at COX-2, the 50% inhibitory concentration (IC50) was above 50 µM. Further, the Papp A→B in series [1] was determined as 32.1 ×10⁻⁶ cm/s; in the series with GLUT-1 (with phloretin 100 mM (GLUT-1 inhibitor), in the presence of 100 mM Phloretin, read-out: Papp A → B, Phloretin), 32.1 ×10⁻⁶ cm/s. Moreover, the Papp B→A in series [1] was determined as 74.9 ×10⁻⁶ cm/s; in the series with GLUT-1 (with phloretin 100 mM (GLUT-1 inhibitor), in the presence of 100 mM Phloretin, read-out: Papp B → A, Phloretin) it was 47.2 ×10⁻⁶ cm/s. Further, in the series on Caco-2 cells, the “Papp B → A, Phloretin” value came to 47.2 ×10⁻⁶ cm/s.

The compound `COc1ccc(-c2noc(CC(=O)NCCNC(=O)Cc3onc(-c4ccc(OC)cc4)c3-c3ccc(OC)cc3)c2-c2ccc(OC)cc2)cc1` [Compound 10, N,N′-(Ethane-1,2-di-yl)-bis-(2-[3,4-bis (4-methoxyphenyl)isoxazol-5-yl]acetamide)] yielded a melting point of 145 to 148 °C.

The compound `COc1ccc(-c2noc(CC(=O)NCCCCNC(=O)Cc3onc(-c4ccc(OC)cc4)c3-c3ccc(OC)cc3)c2-c2ccc(OC)cc2)cc1` [Compound 11, N-(4-(2-(3,4-Bis(4-methoxyphenyl)isoxazol-5-yl)acetamido)butyl)-3,4-bis(4-methoxyphenyl)isoxazole-5-carboxyamide] had a melting point of 163 to 166 °C.

For `CCC(CCCNC(=O)Cc1onc(-c2ccc(OC)cc2)c1-c1ccc(OC)cc1)NC(=O)Cc1onc(-c2ccc(OC)cc2)c1-c1ccc(OC)cc1` (stereo not drawn) [Compound 12, N-(4-(2-(3,4-Bis(4-methoxyphenyl)isoxazol-5-yl)acetamido)hexyl)-3,4-bis(4-methoxyphenyl)isoxazole-5-carboxyamide], the melting point was in the range of 159 to 161 °C.

`CCCCCCCCC(CCCNC(=O)Cc1onc(-c2ccc(OC)cc2)c1-c1ccc(OC)cc1)NC(=O)Cc1onc(-c2ccc(OC)cc2)c1-c1ccc(OC)cc1` (stereo not drawn) [Compound 13, N-(4-(2-(3,4-Bis(4-methoxyphenyl)isoxazol-5-yl)acetamido)dodecyl)-3,4-bis(4-methoxyphenyl)isoxazole-5-carboxyamide]: the melting point is 134 to 138 °C.

The compound `COc1ccc(-c2noc(CC(=O)Nc3ccc(NC(=O)Cc4onc(-c5ccc(OC)cc5)c4-c4ccc(OC)cc4)cc3)c2-c2ccc(OC)cc2)cc1` [Compound 14] had a melting point of 178 to 182 °C.

Turning to `COc1ccc(-c2noc(CC(=O)Nc3ccc(-c4ccc(NC(=O)Cc5onc(-c6ccc(OC)cc6)c5-c5ccc(OC)cc5)cc4)cc3)c2-c2ccc(OC)cc2)cc1` [Compound 16, N,N′-(Biphenyl-4,4′-di-yl)bis(2-(3,4-bis(4-methoxyphenyl)isoxazol-5-yl)acetamide)], the melting point lay in the range of 240 to 243 °C.

On to `COc1ccc(-c2noc(CC(=O)NCCCCC(=O)OC[C@H]3OC(O)[C@H](O)[C@@H](O)[C@H]3O)c2-c2ccc(OC)cc2)cc1` (stereo partly drawn) [GALMOF5, 6-O-(5-{2-[3,4-bis(4-methoxyphenyl)isoxazol-5-yl]acetamido}pentanoyl)-D-galactopyranose], for which the “reduction of the basolateral to apical flux (Papp B→A) in the presence of phloretin” value in the series with Caco-2 cells is given as 37%.

`COc1ccc(-c2noc(CC(=O)NCCCCCCCCCCC(=O)OCC3OC(O)C(O)C(O)C3O)c2-c2ccc(OC)cc2)cc1` [GALMOF11, [(2S,3R,4S,6R)-3,4,5,6-tetrahydroxytetrahydro-2H-pyran-2-yl-]mhetyl 11-{2-[3,4-bis(4-methoxyphenyl)isoxazol-5-yl-]acetamido}undecanoate] came in with an inhibition at 50 µM at COX-2 of 64%. In addition, the IC50 at COX-2 stood at 0.27 µM. Further, the apparent permeability from basolateral to apical (Papp B→A) was 77.2 ×10⁻⁶ cm/s with Caco-2 cells (compound alone); 77.2 ×10⁻⁶ cm/s with GLUT-1 (compound alone, read-out: Papp B → A); 62.2 ×10⁻⁶ cm/s with GLUT-1 (with phloretin (GLUT-1 inhibitor), in Phloretin, read-out: Papp B → A, Phloretin). In the series on Caco-2 cells, the “Papp B → A, Phloretin” value is 62.2 ×10⁻⁶ cm/s. In addition, the “reduction of the basolateral to apical flux (Papp B→A) in the presence of phloretin” value in the series on Caco-2 cells was determined as 20%. The Papp A→B with GLUT-1 (compound alone, read-out: Papp A → B) came out at 29.2 ×10⁻⁶ cm/s; with GLUT-1 (with phloretin (GLUT-1 inhibitor), in Phloretin, read-out: Papp A → B, Phloretin), 29.2 ×10⁻⁶ cm/s.

For `COc1ccc(-c2noc(CC(=O)O)c2-c2ccc(OC)cc2)cc1` [drawing 42, reference compound], the inhibition at 50 µM at ovine COX-1 came out at 100%. At ovine COX-2, the IC50 was above 50 µM and the inhibition at 50 µM came to 38%.

On to `COc1ccc(-c2noc(CC(=O)OCC3OC(O)C(O)C(O)C3O)c2-c2ccc(OC)cc2)cc1` (stereo not drawn) [drawing 44], for which the half-inhibitory concentration (IC50) was 0.1 µM at ovine COX-1 and 0.7 µM against ovine COX-2. Further, the inhibition at 50 µM at ovine COX-1 was 100%; on ovine COX-2, 87%.

As for `COc1ccc(-c2noc(CC(=O)NCCNC(=O)Cc3onc(-c4ccc(OC)cc4)c3-c3ccc(OC)cc3)c2-c2ccc(OC)cc2)cc1` [drawing 61], at ovine COX-1, the IC50 was 0.013 µM and the inhibition at 50 µM amounted to 75%. In addition, on ovine COX-2, the IC50 amounted to 0.12 µM and the inhibition at 50 µM was found to be 45%.

Take `COc1ccc(-c2noc(CC(=O)NCCCCNC(=O)Cc3onc(-c4ccc(OC)cc4)c3-c3ccc(OC)cc3)c2-c2ccc(OC)cc2)cc1` [drawing 64]: on ovine COX-1, the half-inhibitory concentration (IC50) stood at 5.5 µM and the inhibition at 50 µM stood at 74%. The compound further displayed an IC50 against ovine COX-2 above 50 µM.

Regarding `COc1ccc(-c2noc(CC(=O)Nc3ccc(NC(=O)Cc4onc(-c5ccc(OC)cc5)c4-c4ccc(OC)cc4)cc3)c2-c2ccc(OC)cc2)cc1` [drawing 65], on ovine COX-1, it took 0.15 µM to reach half-maximal inhibition (IC50) and the inhibition at 50 µM worked out at 85%. At ovine COX-2, this compound had an IC50 above 50 µM.

For the compound `COc1ccc(-c2noc(CC(=O)Nc3ccc(-c4ccc(NC(=O)Cc5onc(-c6ccc(OC)cc6)c5-c5ccc(OC)cc5)cc4)cc3)c2-c2ccc(OC)cc2)cc1` [drawing 66], on ovine COX-1, the half-maximal inhibitory concentration (IC50) amounted to 0.08 µM and the inhibition at 50 µM was 73%. At ovine COX-2, this compound showed a 50% inhibitory concentration (IC50) above 50 µM.
